Assay results taken from patent publication US8158589B2, “Peptides with the capacity to bind to transforming growth factor β1 (TGF-β1)” (Proyecto Biomedicine Cima, S.L., priority 2003, dated 2012).
Ends that are not written are not given here.

Assays:
TGF-β1 [1] = biological target: T1, TGF-β1 (Mus musculus, UniProt P04202); assay: Model of acute liver damage induced by CCl4, type I collagen mRNA by real time PCR; assay type: in vivo, mice; design: key to % Inhibition of type I collagen mRNA induction (in vivo TGF-β1 biological activity): Neg: negative; conditions: for % Inhibition of type I collagen mRNA induction (in vivo TGF-β1 biological activity): Balb/C mice, oral CCl4, 50 μg of peptide every 24 h, sacrifice after 72 hours; for inhibition of the biological activity of TGF-β1 in vivo (in words): acute liver damage, type I collagen mRNA
T1 construct: from tissue; host or cells: liver of Balb/C mice (CCl4 model); lung of C57BL/6 mice (bleomycin model)
Experimental: Acute liver damage generates a cascade of effects and physiological responses, including elevations in the concentrations of TGF-β1. This elevation is responsible for the expression of the type I collagen gene, among others. In this model of acute liver damage, female Balb/C mice weighing 25 to 30 g, were orally administered a dose of 2 μl of CCl4 (per gram of body weight) dissolved in an equivalent volume of corn oil (volumetric ratio of 1:1). The control group received an equivalent volume of corn oil only, and the treated groups received (following the single oral administration of CCl4 in corn oil) 50 μg of peptide in 500 μl of 1% physiological saline solution in DMSO (dimethyl sulfoxide) every 24 h. After 72 hours all animals were sacrificed, and the liver samples were processed. To evaluate mRNA expression, liver tissue was frozen in liquid nitrogen and stored at −80° C. until further use. Other liver tissue samples were stored in OCT® or Tissue-Tek® (Sakura Finetek B.V.) and processed in the same way as the samples used for mRNA studies. Other liver samples were fixed in 10% buffered formalin solution, embedded in paraffin and processed for their histological evaluation. The amount of mRNA encoding type I collagen was quantified in all groups using a quantitative polymerase chain reaction (PCR) technique. […] The capacity of the testing peptides to block the acute damage, as assessed by measuring the levels of induced type I collagen mRNA was quantified by real time PCR. […] The peptides tested were obtained by conventional solid peptide synthesis procedures (Merrifield R B. J Am Chem Soc 1963; 85:2149-2154; Atherton E et al. J Chem Soc Perkin Trans 1981; 1:538-546).

TGF-β1 [2] = biological target: T2, TGF-β1 (Homo sapiens, UniProt P01137); assay: Biopanning of phage-displayed 15-aa peptide library on biotinylated TGF-β1, number of colonies per sequence; assay type: binding; design: purchased Roche; host or cells: added to Mv-1-Lu (CCL-64) mink lung epithelial cells; conditions: clones carrying the sequence among 108 colonies after the last biopanning cycle; approximate indication of affinity for TGF-β1
From the text: These libraries comprise a plurality of filamentous bacteriophages (M13), each one containing a peptide genetically fused to a protein of the virus envelope—in this case bound to the N-terminal end of envelope protein pIII (FIG. 1). […] In the phage libraries, the sequence encoding the peptide originates from a sequence degenerated in each one of the 15 positions with the 20 natural amino acids, thus allowing the presentation of 1.1×10^12 possible sequences of 15 amino acids in different phages. The physical ratio, 1:1, between the peptide sequence and the DNA encoding it within the bacteriophage allows the selection (from a broad range of variants) of those sequences that specifically bind to TGF-β1. This process is carried out via an in vitro selection protocol known as “biopanning”.
This technique involves incubating a set of phages representative (to practical effects) of all the 15-aa variants, in a plate blocked with streptavidin (10 μg/ml in 0.1 M NaHCO3, during 2 h at room temperature) to which biotinylated TGF-β1 is added. […] TGF-β1 contacts the peptides carried by the phages at a concentration of […]. After about 12 hours incubation, unbound phages are eliminated by 5 washings with PBS/Tween (phosphate buffered saline/polyoxyalkylene derivatives of sorbitan fatty acid esters). […] The eluted phages are then amplified by infection in a bacterial strain (E. coli). The process is repeated three cycles so that an enrichment in the content of phages which specifically bind, and with high affinity, to TGF-β1 is achieved (FIG. 3). […] Thus, the phages selected in each cycle show more and more affinity for TGF-β1. At the end of the process, phages which have been selected for their affinity for TGF-β1, are sequenced by using primers, after isolation by tetracycline resistance of the genetically modified phages after infecting E. coli cells. […] The number of times which a sequence is repeated, corresponding to a 15 amino acids peptide carried by each clone, from the total of sequenced colonies is an indication of the degree of relative affinity of said 15 amino acids sequence for TGF-β1.
The selection of clones, obtained from the “biopanning”, was carried out by selection of the bacterial colonies infected with the phages in the presence of a bacterial antibiotic; the bacteria resistance is acquired by a tetracycline resistance gene encoded by the phage genome. Thus, only those colonies infected with bacteriophages are able to grow. This means that each colony contains the genome of only one phage coding for only one peptide presented in its surface.
A total number of 108 colonies of phage-infected bacteria were obtained from the last selection cycle of “biopanning”. The sequence of the regions coding for the peptides present in the pIII protein was carried out using primers identified with SEQ ID NO: 23. This table also reflects the number of colonies (clones) carrying said sequences.
The number of clones (colonies) of each sequence gives an approximate indication of the degree of affinity of the peptide for TGF-β1, that is, the more colonies the more binding affinity.

TGF-β1 [3] = biological target: T2, TGF-β1; assay type: cell-based; design: purchased Roche; host or cells: added to Mv-1-Lu (CCL-64) mink lung epithelial cells
From the text: The cell line Mv-1-Lu (CCL-64, […], Virginia, USA) derives from mink pulmonary epithelium, grows as a monolayer, and responds to the presence of TGF-β1 by decreasing its proliferation (FIG. 5). Thus, the peptide-mediated inhibition of this cytokine is able to restore cell growth and reflects the capacity of the different peptides to inhibit the biological activity of TGF-β1 in vitro. The peptides tested were obtained by peptide synthesis, in accordance to conventional procedures (Merrifield R B. J Am Chem Soc 1963; 85:2149-2154; Atherton E et al. J Chem Soc Perkin Trans 1981; 1:538-546).
The Mv-1-Lu cells are cultured to confluence in complete medium [RPMI-1640 supplemented with L-glutamine, sodium pyruvate, antibiotics and 10% fetal bovine serum (FBS)] at 37° C. and in 5% CO2 in 162 cm^2 bottles (Costar Corporation, CA, USA). Following trypsinization, the cells are cultured in 200 μl of complete medium in 96-well plates at an initial density of 5,000 cells/well at 37° C. and in 5% CO2 during 6 hours to ensure adhesion. Then, different concentrations of the peptides to be tested are added, starting from 200 μg/ml, and following 200 pg/ml of TGF-β1 (Roche) are added. After 12 hours of incubation 1 μCi of methyl-3H-thymidine (Amersham Life Science, Buckinghamshire, United Kingdom) is added per well in 25 μl of clean medium (RPMI-1640). The plate is incubated for 12 more hours under the same conditions. Finally, the cells are harvested (Filtermate 196 Harvester, Packard), transferring the tritiated thymidine, incorporated in the course of DNA synthesis, to plates (UniFilter-96 GF/C®, Perkin Elmer). Following the addition of scintillation fluid, the radioactivity was quantified using a scintillation counter (Top Count, Microplate Scintillation Counter, Packard). As positive and negative control, use was made of the incorporation of tritiated thymidine in the absence and presence of TGF-β1, respectively. The inhibition of TGF-β1 activity in this test was calculated based on the following formula: […]
The negative control represents the incorporation of tritiated thymidine in the presence of TGF-β1 but in the absence of peptide, whereas the positive control refers to the incorporation of tritiated thymidine in the absence of TGF-β1 and peptide. Thus, according to the capacity of the peptides to revert the cytokine repressor effect on Mv-1-Lu cell line proliferation, percentage of TGF-β1 biological activity inhibition by the peptides can be measured (Table 2).
Comparisons have been made of the activity of truncated peptides (derived from peptide sequence SEQ ID NO: 17) versus the complete sequence, in terms of the capacity to revert the suppressor effect of TGF-β1 upon proliferation of the Mv-1-Lu cell line. To this effect, and to determine the minimum sequence of peptide SEQ ID NO: 17 capable of inhibiting the biological activity of TGF-β1 in vitro, truncated versions of this peptide were synthesized, with truncation at the N-terminal end, C-terminal end or in both ends of the molecule. The peptides tested were obtained by peptide synthesis following conventional procedures (Merrifield R B. J Am Chem Soc 1963; 85:2149-2154; Atherton E et al. J Chem Soc Perkin Trans 1981; 1:538-546). Following the same methodology described in Example 2, the activity of truncated peptides versus the complete sequence of the peptide SEQ ID NO: 17 was quantified, in terms of a proliferation assay of the Mv-1-Lu cell line.

T2 sequence (P01137 279-390 limits assumed, species assumed): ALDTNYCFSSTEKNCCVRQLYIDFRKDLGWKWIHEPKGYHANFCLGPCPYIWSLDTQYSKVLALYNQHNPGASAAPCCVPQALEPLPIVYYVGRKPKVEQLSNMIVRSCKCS
T1 sequence (P04202 279-390 limits assumed): as the sequence (P01137 279-390 limits assumed, species assumed) above, with A75S counted along it

Row | Sequence | % Inhibition of type I collagen mRNA induction (in vivo TGF-β1 biological activity) (TGF-β1 [1]) | No. colonies (TGF-β1 [2]) | % Inhibition of in vitro TGF-β1 biological activity (TGF-β1 [3]) | also measured
1 | DRRIFWWSLRSAPGA [SEQ ID NO: 1] | 0.69% | 6 |  | 
2 | DRRIFWWSNRSAPGA [SEQ ID NO: 2] | 36.6 ± 30.7% | 1 |  | inhibition of the biological activity of TGF-β1 in vivo (in words) (TGF-β1 [1]): only inhibitory activity
3 | FIPRSSWYERA [SEQ ID NO: 30, FIPRSSWYERA] |  |  | −0.3 ± 3.0% | 
4 | FVWVRFHRLPRQIYT [SEQ ID NO: 10] | Neg | 1 |  | 
5 | GWHSLLHSRYHRLAA [SEQ ID NO: 9] | 26.59% | 1 |  | 
6 | GWITFHRRHHDRVLS [SEQ ID NO: 15] | 14.26% | 1 |  | 
7 | HRISHFAHRYLARLH [SEQ ID NO: 7] | Neg | 2 |  | 
8 | HVRLHHYLRHRSLPN [SEQ ID NO: 21] | Neg | 1 |  | 
9 | IPRSSWYERA [SEQ ID NO: 31, IPRSSWYERA] |  |  | 3.4 ± 1.4% | 
10 | IWFIPRSSWYE [SEQ ID NO: 27, IWFIPRSSWYE] |  |  | 1.4 ± 2.5% | 
11 | IWFIPRSSWYERA [SEQ ID NO: 26, IWFIPRSSWYERA] |  |  | 4.5 ± 1.8% | 
12 | KRIWFIPRS [SEQ ID NO: 36, KRIWFIPRS] |  |  | 6.2 ± 2.5% | 
13 | KRIWFIPRSS [SEQ ID NO: 35, KRIWFIPRSS] |  |  | 6.0 ± 0.4% | 
14 | KRIWFIPRSSWY [SEQ ID NO: 34, KRIWFIPRSSWY] |  |  | 34.4 ± 7.9% | inhibition of the biological activity of TGF-β1 in vivo (in words) (TGF-β1 [1]): capable of inhibiting the expression of collagen type I mRNA
15 | KRIWFIPRSSWYER [SEQ ID NO: 33, KRIWFIPRSSWYER] |  |  | 31.4 ± 7.0% | inhibition of the biological activity of TGF-β1 in vitro (in words) (TGF-β1 [3]; Mv-1-Lu proliferation): inhibitory activity
16 | PRSSWYERA [SEQ ID NO: 32, PRSSWYERA] |  |  | 3.8 ± 1.6% | 
17 | RHLSHFKWLRSHGLD [SEQ ID NO: 19] | 12.12% | 1 |  | 
18 | RIWFIPRSSWYER [SEQ ID NO: 25, RIWFIPRSSWYER] |  |  | 6.2 ± 1.5% | 
19 | RIWFIPRSSWYERA [SEQ ID NO: 24, RIWFIPRSSWYERA] |  |  | 9.4 ± 0.4% | 
20 | RLHGHRSHRFTHVAQ [SEQ ID NO: 16] | Neg | 1 |  | 
21 | RRFHFHSRMVAVDNS [SEQ ID NO: 20] | 1.41% | 1 |  | 
22 | RRWVRYPVHLHSPIV [SEQ ID NO: 5] | Neg | 1 |  | 
23 | VPMALNHGVYVMVSS [SEQ ID NO: 22] | Neg | 1 |  | 
24 | WFIPRSSWY [SEQ ID NO: 28, WFIPRSSWY] |  |  | 3.1 ± 0.9% | 
25 | WFIPRSSWYERA [SEQ ID NO: 29, WFIPRSSWYERA] |  |  | 2.7 ± 1.8% | 
26 | WHKYFLRRPLSVGLG [SEQ ID NO: 12] | Neg | 1 |  | 
27 | WHWRHRIPLQLAAGR [SEQ ID NO: 8] | Neg | 2 |  | 
